From patent publication US8664271B2, “Stabilized leukotriene B4 (LTB4) agent pharmaceutical formulation” (LTB4 Sweden AB, priority 2004, dated 2014)

Assays:
[1] = Effect of pH (phosphate buffer) on stability of aqueous LTB4 Na salt solution at 17.5 μg/ml; assay type: physicochemical
Procedure: Aqueous isotonic LTB4 Na salt solutions at the concentration of 17.5 μg/ml were obtained by dilution in phosphate buffered saline (3 mM sodium phosphate buffer, pH 7.5, 8.5, 9.5 and 10.5) containing 0.01% EDTA of an LTB4 Na salt solution at 25 mg/ml (Example 2). Solutions of LTB4 Na salt at 17.5 μg/ml of the 4 different pH were dispensed in 2 ml vials for storage under air, in the dark at 4±4° C. or 20±5° C. for 15 months prior to reverse phase HPLC analysis of LTB4 and impurities, as described in Example 1.

[2] = Forced degradation of aqueous LTB4 sodium salt solutions at increasing sodium hydroxide concentrations; assay type: physicochemical; conditions: for impurity level: five weeks at 40° C.; for pH after five weeks of storage / final pH (after five weeks): 40° C.
Procedure: An ethanolic solution of LTB4 (acid form) obtained from Cascade Biochem (UK) was neutralized by the addition of 1 equivalent of sodium hydroxide to generate LTB4 sodium salt. Aliquots of the ethanolic solution of the sodium salt of LTB4 were dispensed into 2-ml vials (to obtain 2 mg of LTB4 per vial) and the solvent was evaporated to dryness under a stream of nitrogen. The residues in vials were dissolved with 0.9% sodium chloride (NaCl) (vial 1), 0.9% NaCl in 0.1 mN NaOH (vial 2), 0.9% NaCl in 1 mN NaOH (vial 3), 0.9% NaCl in 10 mN NaOH (vial 4), 0.3% NaCl in 0.1N NaOH (vial 5) and in 1N NaOH (vial 6). Aliquots of the solutions were taken for immediate analysis (to) and the remaining solutions of LTB4 sodium salt at 2 mg/ml were stored under air, in the dark at 40±5° C. for five weeks, prior to reverse phase HPLC analysis of LTB4 and impurities as described in example 1.

Structure (SMILES): CCCCC/C=C\C[C@@H](O)/C=C/C=C/C=C\[C@@H](O)CCCC(=O)[O-].[Na+] [LTB4 Na salt]
- degradation of LTB4 ([1]; pH 7.5 to 10.5, 15 months of storage at 4° C.): very little degradation
- effect of increasing pH on stability ([1]; phosphate buffered saline pH 7.5 to 10.5, 0.01% EDTA, 15 months, more evident at 20° C.): strikingly increases the stability
- impurity level ([2]; vial 1: 2 mg/ml in 0.9% NaCl): 100%
- pH after five weeks of storage ([2]; vial 1: 0.9% NaCl): < 5
- impurity level ([2]; vial 2: 2 mg/ml in 0.9% NaCl in 0.1 mN NaOH): 100%
- pH after five weeks of storage ([2]; vial 2: 0.9% NaCl in 0.1 mN NaOH): < 5
- impurity level ([2]; vial 3: 2 mg/ml in 0.9% NaCl in 1 mN NaOH): 5.34 % of AUC 270 nm
- final pH (after five weeks) ([2]; vial 3: 0.9% NaCl in 1 mN NaOH): 8.02
- impurity level ([2]; vial 4: 2 mg/ml in 0.9% NaCl in 10 mN NaOH): 3.46 % of AUC 270 nm
- final pH (after five weeks) ([2]; vial 4: 0.9% NaCl in 10 mN NaOH): 9.83
- impurity level ([2]; vial 5: 2 mg/ml in 0.3% NaCl in 0.1N NaOH): 4.38 % of AUC 270 nm
- final pH (after five weeks) ([2]; vial 5: 0.3% NaCl in 0.1N NaOH): 12.50
- impurity level ([2]; vial 6: 2 mg/ml in 1N NaOH): 5.77 % of AUC 270 nm
- final pH (after five weeks) ([2]; vial 6: 1N NaOH): 13.03
